According to US12365670B2, “GLP-IR agonists and uses thereof” (QILU REGOR THERAPEUTICS INC., priority 2018, dated 2025):

How the values were obtained:
GLP1R [1] = biological target: T1, GLP1R (Homo sapiens, UniProt P43220); assay: GLP-1R/β-Arrestin recruitment assay (PathHunter eXpress GLP1R CHO-K1 β-Arrestin GPCR Assay); format: cell-based; set-up: host or cells: PathHunter CHO-K1 GLP1R β-Arrestin cells (from the kit); conditions: averaged Bmax, Percentage of Control GLP-1 (7-37), top concentration 10 μM
T1 sequence (P43220 24-463): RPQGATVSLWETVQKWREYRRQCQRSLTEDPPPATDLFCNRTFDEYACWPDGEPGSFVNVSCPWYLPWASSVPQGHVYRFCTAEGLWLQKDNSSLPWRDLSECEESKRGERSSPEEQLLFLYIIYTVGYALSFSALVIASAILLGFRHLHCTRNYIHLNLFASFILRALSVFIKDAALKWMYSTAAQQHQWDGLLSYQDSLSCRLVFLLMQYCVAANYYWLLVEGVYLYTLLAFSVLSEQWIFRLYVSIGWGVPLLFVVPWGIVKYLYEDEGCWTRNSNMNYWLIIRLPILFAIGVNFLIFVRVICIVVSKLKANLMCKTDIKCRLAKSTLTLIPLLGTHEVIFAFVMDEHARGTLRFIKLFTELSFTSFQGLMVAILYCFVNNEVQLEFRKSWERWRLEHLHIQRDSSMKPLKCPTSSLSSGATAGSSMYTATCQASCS
Excerpt: GLP-1R agonist activity with respect to β-arrestin recruitment can be determined with a cell-based functional assay using PathHunter eXpress GLP1R CHO-K1 β-Arrestin GPCR Assay kit (DiscoverX Cat #93-0300E2CPOM).
The PathHunter β-Arrestin GPCR assay technology utilizes a β-galactosidase ([…]) enzyme that is split into two fragments, the smaller Enzyme Donor (ED) and the larger Enzyme Acceptor (EA). These fragments can be fused to two proteins that may interact with each other, such as EA-β-Arrestin and ED-GLP-1R. The fusions can be stably expressed in a test cell line, such as the PathHunter CHO-K1 GLP1R β-Arrestin cells described below. […]
In this experiment, PathHunter CHO-K1 GLP1R β-Arrestin cells from the assay kit were plated at a density of 1000 or 2000 cells/[…]/well in a 384-well white/clear bottom plates (Greiner Cat #781098). […] Cells were stored in a 37° C. incubator under 5% CO2 and kept for approximately 48 hours until ready to run the assay. […]
Following 90 min incubation, detection reagents were made up by combining 1 part Galacton Star Substrate with 5 parts Emerald II™ Solution, and 19 parts of PathHunter Cell Assay Buffer, respectively. […] Plates were then read on Envision for 0.1 sec/well.
EC50 determinations were made from agonist dose-response curves analyzed with a curve fitting program using a 4-parameter logistic dose response equation. […]

[2] = Monkey oral pharmacokinetic (PK) study; format: in vivo, Cynomolgus monkeys (Macaca fascicularis); conditions: for plasma concentration-time profile: PO, over about 24 hours after oral dosing, FIGS. 8A-8E; for AUC0-24 h (Arbitrary units) / Cmax (Arbitrary unit): oral
Description: Appropriate volumes of vehicles (e.g., 2% Tween 80 (v:v) and 0.5% MC (w:v) in saline or 0.5% MC (w:v) in water were then added into the mortar containing the ground compounds, and the mixture was then grinded with a pestle until a homogeneous paste was formed. Additional appropriate volumes of vehicles were added into the mortar containing each compound, and the mixture was grinded further with the pestle until a homogeneous suspension was obtained.
The suspension was then transferred into a glass bottle. The mortar and the pestle were rinsed with the vehicle until no compound was left in the mortar or on the pestle.
The rest of the vehicle was added to make up the final dosing volume of about 1 mg/mL or 2 mg/mL (i.e., final dosing volume of about 5 mL/kg), and the homogenous suspension was continuously stirred prior to and during the dosing.
Non-nave Cynomolgus male monkeys (n=3/test article; sourced from Hainan Jingang Biotech Co., Ltd., Nayang Xintan, Fucheng Town, Qiongshan District, Haikou City, Hainan Province, China); or non-naïve aged, obese, and diabetic male Macaca fascicularis monkeys (n=3/test article, Source: Kunming Biomed International Colony) were used in pre-clinical in vivo studies. All non-nave Cynomolgus male monkeys were approximately 3 to 5 years old, weighed about 2.5-5 kg, and were within ±20% of the average body weight. All non-nave aged, obese, and diabetic male Macaca fascicularis monkeys were approximately 12 to 20 years old, weighed about >8-12 kg.
All animals were fasted overnight before dosing, and the food were supplied approximately 4 hours post dose (with free access to water all the time).
Animals were restrained at designated time points for blood sampling. Approximately 500 μL of blood samples was taken via cephalic or saphenous vein into EDTA-K2 tubes. Blood samples were put on wet ice before centrifugation.
For oral administration (PO) of either Dose 1 or Dose 2: blood samples were collected at pre-dose, and at 15 min, 30 min, 1 hr, 2 hr, 4 hr, (6 hr for compounds 19 and 28 with cynomolgus monkeys only), 8 hr, 12 hr, and 24 hr post dose (i.e., 9 or 10 total time points for each compound at each dose).
The blood samples were centrifuged at approximately 2,000-4,000 rpm for about 10-15 minutes at 2-8° C., and each resulting plasma portion was then transferred into an individual tube.
LC-MS/MS methods were developed, and bioanalysis for the test articles in monkey plasma was performed according to the developed LC-MS/MS methods.
Undiluted plasma samples: An aliquot of 20-50 μL plasma sample was mixed with 200 μL of ACN or MeOH containing one of the internal standards (IS, e.g., Diclofenac or Terfenadine) The mixture was then vortexed for about 1-5 min, and centrifuged at about 4,000-5,800 rpm for about 10-15 min. An aliquot of 1 μL supernatant was used for LC-MS/MS analysis.
Plasma samples with 10-fold dilution: An aliquot of 2 μL plasma sample was first mixed with 18 μL of blank plasma, then 200 μL of ACN containing 100 ng/mL IS (e.g. Diclofenac) was added to the mixture. The mixture was then vortexed for about 10 min, and was centrifuged at about 5,800 rpm for about 10 min. An aliquot of 1 μL supernatant was used for LC-MS/MS analysis.
MS conditions: Positive ion, ESI, MRM detection with parent and daughter ions, internal standard Diclofenac. • Compound ID: Compounds 19, 28, 29, 225 or 418 (control) HPLC conditions Method 1: • Mobile Phase A: H2O-0.025% FA-1 mM NH4OAC • Mobile Phase B: MeOH-0.025% FA-1 mM NH4OAC
Pharmacokinetics parameters, including area under the curve (AUC0-t), maximum plasma concentration (Cmax), time to reach maximum plasma concentration (Tmax), oral bioavailability (F %), etc., were calculated using Phoenix software (Version 6.4) and non-compartment model.

GLP1R [3] = biological target: T1, GLP1R; assay: β-Arrestin-mediated GLP1R internalization assay (PathHunter engineered U2OS cells); format: cell-based; set-up: host or cells: PathHunter engineered U2OS cells; conditions: averaged Bmax, Percentage of Control GLP-1 (7-37), top concentration 10 μM
Excerpt: A similar assay can also be used to assess the extent of signal attenuation due to GLP-1R internalization (the β-Arrestin Internalization Assay). In this assay, activated GLP1R Internalization cells were engineered to co-express an untagged GLP1R, Enzyme Acceptor (EA) tagged β-Arrestin, and a ProLink™ (PK) tag localized to the endosomes. Activation of the GLP1R induces β-Arrestin recruitment, which leads to internalization of the Receptor/Arrestin-EA complex in PK-tagged endosomes. This forces complementation of the two β-galactosidase enzyme fragments (EA and PK) to form a functional enzyme that hydrolyzes substrate to generate a chemiluminescent signal. […]
Specifically, PathHunter engineered U2OS cells from the assay kit (Cat #93-0724E3CP0L) were plated at a density of 2000 cells/20 μL/well in a 384-well white/clear bottom plates (Greiner Cat #781098). […] Cells were stored in a 37° C. incubator and kept for approximately 48 hours until ready for the assay. […]
Following 180 min incubation, detection reagents were made up by combining 1 part Galacton Star Substrate with 5 parts Emerald II™ Solution, and 19 parts of PathHunter Cell Assay Buffer, respectively. […] Plates were then read on Envision for 0.1 sec/well.
EC50 determinations were made from agonist dose-response curves analyzed with a curve fitting program using a 4-parameter logistic dose response equation.

[4] = Dose 1, non-naive Cynomolgus male monkeys

Row | SMILES | plasma concentration-time profile [2] | AUC0-24 h (Arbitrary units) ([2]; Dose 2, monkeys) | Cmax (Arbitrary unit) ([2]; Dose 2, monkeys) | other results
1 | O=C(O)c1ccc2nc(CN3CCN(c4cccc(NCc5ccc(Cl)cc5F)n4)CC3)n(C[C@@H]3CCO3)c2c1 [Compound 1, (S)-2-((4-(6-(4-chloro-2-fluorobenzylamino)pyridin-2-yl)piperazin-1-yl)methyl)-1-(oxetan-2-ylmethyl)-1 h-benzo[d]imidazole-6-carboxylic acid] |  |  |  | Bmax (POC) (GLP1R [1]): 2.80 POC
2 | N#Cc1ccc(COc2cccc(C3=CCN(Cc4nc5ccc(C(=O)O)cc5n4C[C@@H]4CCO4)CC3)n2)c(F)c1 [Compound 19, (S)-2-((4-(6-(4-cyano-2-fluorobenzyloxy)pyridin-2-yl)-5,6-dihydropyridin-1(2H)-yl)methyl)-1-(oxetan-2-ylmethyl)-1 h-benzo[d]imidazole-6-carboxylic acid] | sustained at a more constant level |  |  | AUC0-24 h (Arbitrary units) [2, 4]: 1130 Arbitrary units; Cmax (Arbitrary unit) [2, 4]: 125 Arbitrary unit
3 | N#Cc1ccc(COc2cccc(C3=CCN(Cc4nc5ccc(C(=O)O)nc5n4C[C@@H]4CCO4)CC3)n2)c(F)c1 [Compound 225, (S)-2-((6-((4-cyano-2-fluorobenzyl)oxy)-3′,6′-dihydro-[2,4′-bipyridin]-1′(2′H)-yl)methyl)-3-(oxetan-2-ylmethyl)-3H-imidazo[4,5-b]pyridine-5-carboxylic acid] | sustained at a more constant level | 1500 Arbitrary units | 184 Arbitrary unit | 
4 | O=C(O)c1ccc2nc(CN3CC=C(c4ccc(F)c(OCc5ccc(Cl)cc5F)c4)CC3)n(C[C@@H]3CCO3)c2n1 [Compound 236, (S)-2-((4-(3-((4-chloro-2-fluorobenzyl)oxy)-4-fluorophenyl)-5,6-dihydropyridin-1(2H)-yl)methyl)-3-(oxetan-2-ylmethyl)-3H-imidazo[4,5-b]pyridine-5-carboxylic acid] |  |  |  | Bmax (POC) (GLP1R [3]): 30.0 POC

The next lines start with results.

Row | plasma concentration-time profile [2] | AUC0-24 h (Arbitrary units) ([2]; Dose 2, monkeys) | Cmax (Arbitrary unit) ([2]; Dose 2, monkeys) | SMILES | other results
5 | sustained at a more constant level |  |  | O=C(O)c1ccc2nc(CN3CC=C(c4cccc(OCc5ccc(Cl)cc5F)c4)CC3)n(C[C@@H]3CCO3)c2c1 [Compound 28, (S)-2-((4-(3-((4-chloro-2-fluorobenzyl)oxy)phenyl)-3,6-dihydropyridin-1(2H)-yl)methyl)-1-(oxetan-2-ylmethyl)-1 h-benzo[d]imidazole-6-carboxylic acid] | AUC0-24 h (Arbitrary units) [2, 4]: 24900 Arbitrary units; Cmax (Arbitrary unit) [2, 4]: 3910 Arbitrary unit
6 | sustained at a more constant level | 21800 Arbitrary units | 3380 Arbitrary unit | O=C(O)c1ccc2nc(CN3CC=C(c4ccc(F)c(OCc5ccc(Cl)cc5F)c4)CC3)n(C[C@@H]3CCO3)c2c1 [Compound 29, (S)-2-((4-(3-((4-chloro-2-fluorobenzyl)oxy)-4-fluorophenyl)-3,6-dihydropyridin-1(2H)-yl)methyl)-1-(oxetan-2-ylmethyl)-1 h-benzo[d]imidazole-6-carboxylic acid] | 
7 |  | 774 Arbitrary units | 232 Arbitrary unit | N#Cc1ccc(COc2cccc(C3CCN(Cc4nc5ccc(C(=O)O)cc5n4C[C@@H]4CCO4)CC3)n2)c(F)c1 [Compound 418, reference compound] | drop in plasma concentration ([2]; over about 24 hours post oral dosing, Dose 2, FIG. 8F): about 10 fold
